“And” between values parts separate entries of the source, which are not always exact repeats. Equal values may be shown once. Inconclusive results and toxic doses are left out. The calls were made as follows: active = survival T/C of 150% or more; inactive = T/C below 125% in these data.
System: P388 leukemia ip, CD2F1 mice, survival T/C
Experiment: NCI In Vivo Anticancer Drug Screen. Data for tumor model P388 Leukemia (intraperitoneal) in CD2F1 (CDF1) mice
Conditions: endpoint: median survival time, higher = longer survival
Method in brief: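 Mice carrying the transplanted tumor received test compound or vehicle. Survival was recorded in each group, and the value is the treated-group measurement divided by that of the vehicle-treated control group.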

[1] = dose: 50.0 mg/kg/injection, schedule: Q01DX009 (ip), vehicle: Klucel (hydroxypropylcellulose) (HPC)
[2] = dose: 100.0 mg/kg/injection, schedule: Q01DX009 (ip), vehicle: Klucel (hydroxypropylcellulose) (HPC)
[3] = dose: 200.0 mg/kg/injection, schedule: Q01DX009 (ip), vehicle: Klucel (hydroxypropylcellulose) (HPC)
[4] = dose: 50.0 mg/kg/injection, schedule: Q01DX009 (ip), vehicle: saline
[5] = dose: 100.0 mg/kg/injection, schedule: Q01DX009 (ip), vehicle: saline
[6] = dose: 200.0 mg/kg/injection, schedule: Q01DX009 (ip), vehicle: saline
[7] = dose: 100.0 mg/kg/injection, schedule: Q01DX009 (ip), vehicle: saline with Tween-80
[8] = dose: 200.0 mg/kg/injection, schedule: Q01DX009 (ip), vehicle: saline with Tween-80
[9] = dose: 400.0 mg/kg/injection, schedule: Q01DX009 (ip), vehicle: saline with Tween-80
[10] = dose: 50.0 mg/kg/injection, schedule: Q01DX005 (ip), vehicle: Klucel (hydroxypropylcellulose) (HPC)
[11] = dose: 100.0 mg/kg/injection, schedule: Q01DX005 (ip), vehicle: Klucel (hydroxypropylcellulose) (HPC)
[12] = dose: 100.0 mg/kg/injection, schedule: Q04DX002 (ip), vehicle: Klucel (hydroxypropylcellulose) (HPC)
[13] = dose: 400.0 mg/kg/injection, schedule: Q04DX002 (ip), vehicle: Klucel (hydroxypropylcellulose) (HPC)
[14] = dose: 50.0 mg/kg/injection, schedule: Q01DX009 (ip), vehicle: saline with Tween-80
[15] = dose: 200.0 mg/kg/injection, schedule: Q01DX005 (ip), vehicle: Klucel (hydroxypropylcellulose) (HPC)
[16] = dose: 6.25 mg/kg/injection, schedule: Q01DX009 (ip), vehicle: saline with Tween-80
[17] = dose: 12.5 mg/kg/injection, schedule: Q01DX009 (ip), vehicle: saline with Tween-80
[18] = dose: 25.0 mg/kg/injection, schedule: Q01DX009 (ip), vehicle: saline with Tween-80

Measured: T/C

Cc1ccc(CNc2ccc(C)c(Cl)c2)cc1
inactive: dose: 100.0 mg/kg/injection, schedule: Q04DX003 (ip), vehicle: other 100 % of control | dose: 200.0 mg/kg/injection, schedule: Q04DX003 (ip), vehicle: other 100 % of control | dose: 400.0 mg/kg/injection, schedule: Q04DX003 (ip), vehicle: other 100 % of control

COc1cc(-c2n[nH]c(=O)o2)cc(OC)c1OC
inactive: [1] 105 % of control | [2] 100 % of control | [3] 105 % of control

CC1(C)CC2C3=CCC4C5(C)CCC(O)C(C)(C)C5CCC4(C)C3(C)CCC2(CO)C(O)C1O (configuration not stated)
inactive: dose: 3.25 mg/kg/injection, schedule: Q01DX005 (ip), vehicle: Klucel (hydroxypropylcellulose) (HPC) 99 % of control | dose: 6.5 mg/kg/injection, schedule: Q01DX005 (ip), vehicle: Klucel (hydroxypropylcellulose) (HPC) 99 % of control | dose: 13.0 mg/kg/injection, schedule: Q01DX005 (ip), vehicle: Klucel (hydroxypropylcellulose) (HPC) 99 % of control | dose: 26.0 mg/kg/injection, schedule: Q01DX005 (ip), vehicle: Klucel (hydroxypropylcellulose) (HPC) 98 % of control

CC1C(=O)C(C)C(c2ccccc2)NC1c1ccccc1 (configuration not stated)
inactive: [4] 99 % of control | [5] 98 % of control | [6] 89 % of control

Nc1cc(Cl)c(N=Nc2ccccc2)c(N)n1
inactive: [7] 103 % of control | [8] 107 % of control | [9] 94 % of control

COC(=O)NC12CC3CC(C(C)O1)C2N(Cc1ccccc1)C3 (configuration not stated)
inactive: dose: 25.0 mg/kg/injection, schedule: Q01DX005 (ip), vehicle: Klucel (hydroxypropylcellulose) (HPC) 100 % of control | [10] 93 % of control | [11] 94 % of control

O=[N+]([O-])O.[Mn].c1ccc(/C2=c3\cc/c([n-]3)=C(\c3ccccc3)c3ccc([n-]3)/C(c3ccccc3)=c3/cc/c([n-]3)=C(\c3ccccc3)c3ccc2[n-]3)cc1
inactive: dose: 25.0 mg/kg/injection, schedule: Q04DX002 (ip), vehicle: saline with Tween-80 100 % of control | dose: 50.0 mg/kg/injection, schedule: Q04DX002 (ip), vehicle: saline with Tween-80 94 % of control | [12] 108 % of control | dose: 100.0 mg/kg/injection, schedule: Q04DX002 (ip), vehicle: saline with Tween-80 94 % of control | [13] 108 % of control

CN([NH-])C(=S)[S-].CN([NH-])C(=S)[S-].[Pt+4]
inactive: dose: 25.0 mg/kg/injection, schedule: Q04DX003 (ip), vehicle: Klucel (hydroxypropylcellulose) (HPC) 107 % of control | dose: 50.0 mg/kg/injection, schedule: Q04DX003 (ip), vehicle: Klucel (hydroxypropylcellulose) (HPC) 100 % of control | dose: 100.0 mg/kg/injection, schedule: Q04DX003 (ip), vehicle: Klucel (hydroxypropylcellulose) (HPC) 90 % of control

O=c1[nH]c2c(ccc3c[n+]([O-])ccc32)c2c1CCC2
inactive: [14] 88 % of control | [7] 100 % of control | [8] 108 % of control

C1CN(/N=N/c2nn[nH]n2)CCO1
inactive: [1] 117 % of control | [2] 117 % of control | [3] 106 % of control

COc1ccc(C(c2cc3c(cc2O)OCO3)N2CCN(C(c3cc4c(cc3O)OCO4)c3ccc(OC)cc3OC)CC2)c(OC)c1 (configuration not stated)
inactive: dose: 60.0 mg/kg/injection, schedule: Q01DX005 (ip), vehicle: Klucel (hydroxypropylcellulose) (HPC) 88 % of control | dose: 120.0 mg/kg/injection, schedule: Q01DX005 (ip), vehicle: Klucel (hydroxypropylcellulose) (HPC) 86 % of control

O=S(=O)(C#Cc1ccccc1)C(F)(F)F
inactive: dose: 100.0 mg/kg/injection, schedule: Q01DX001 (ip), vehicle: saline 105 % of control | dose: 200.0 mg/kg/injection, schedule: Q01DX001 (ip), vehicle: saline 105 % of control | dose: 400.0 mg/kg/injection, schedule: Q01DX001 (ip), vehicle: saline 106 % of control

CC1(C)NC(=O)N(Cc2ccccc2)C1=O
inactive: [1] 102 % of control | [4] 108 % of control | [2] 101 % of control | [5] 108 % of control | [3] 102 % of control | [6] 104 % of control

COc1cc2c(c3oc4c(O)cccc4c(=O)c13)CC(C(C)(O)CCl)O2 (configuration not stated)
inactive: dose: 2.0 mg/kg/injection, schedule: Q01DX009 (ip), vehicle: saline + alcohol 113 % of control | dose: 4.0 mg/kg/injection, schedule: Q01DX009 (ip), vehicle: saline + alcohol 112 % of control

CSc1nccc2ccccc12
inactive: dose: 12.5 mg/kg/injection, schedule: Q01DX009 (ip), vehicle: other 96 % of control | dose: 25.0 mg/kg/injection, schedule: Q01DX009 (ip), vehicle: other 93 % of control | dose: 50.0 mg/kg/injection, schedule: Q01DX009 (ip), vehicle: other 118 % of control

CCCCCCCCCCCCC[N+]1([O-])CCOCC1
inactive: dose: 12.5 mg/kg/injection, schedule: Q01DX009 (ip), vehicle: saline 101 % of control | dose: 25.0 mg/kg/injection, schedule: Q01DX009 (ip), vehicle: saline 100 % of control | [4] 89 % of control and 96 % of control

CNC(=O)OCCC(OC(=O)NC)C1CCC2C3CCC4CCCCC4(C)C3CCC12C (configuration not stated)
inactive: [12] 113 % of control | dose: 200.0 mg/kg/injection, schedule: Q04DX002 (ip), vehicle: Klucel (hydroxypropylcellulose) (HPC) 103 % of control | [13] 110 % of control

Cc1ccc(N=Nc2c(-c3cccs3)nn(C(=S)S)c2C(F)(F)F)cc1
inactive: [10] 92 % of control | [11] 92 % of control | [15] 87 % of control

NC1=NN(S(=O)(=O)c2ccccc2)CC1
inactive: [10] 94 % of control | [11] 99 % of control | [15] 98 % of control

COc1cccc(/C=N/NC(=O)N/N=C/c2cccc(OC)c2O)c1O
inactive: [14] 92 % of control | [7] 100 % of control | [8] 101 % of control | [9] 95 % of control

CN1CCNc2c1cc(O)c1c2C(=O)c2ccccc2C1=O
inactive: dose: 100.0 mg/kg/injection, schedule: Q01DX001 (ip), vehicle: Klucel (hydroxypropylcellulose) (HPC) 101 % of control | dose: 200.0 mg/kg/injection, schedule: Q01DX001 (ip), vehicle: Klucel (hydroxypropylcellulose) (HPC) 94 % of control | dose: 400.0 mg/kg/injection, schedule: Q01DX001 (ip), vehicle: Klucel (hydroxypropylcellulose) (HPC) 98 % of control

S=C(NCNC(=S)c1ccncc1)c1ccncc1
inactive: dose: 50.0 mg/kg/injection, schedule: Q01DX005 (ip), vehicle: saline with Tween-80 100 % of control and 111 % of control | dose: 100.0 mg/kg/injection, schedule: Q01DX005 (ip), vehicle: saline with Tween-80 108 % of control and 120 % of control | dose: 200.0 mg/kg/injection, schedule: Q01DX005 (ip), vehicle: saline with Tween-80 104 % of control

CN(C)/C=N\c1ncnc2c1ncn2C1OC(CO)C(O)C1O (configuration not stated)
inactive: [16] 104 % of control | [17] 98 % of control | [18] 102 % of control | [14] 99 % of control | [7] 95 % of control

COc1ccccc1-c1cn(O)c(=N)c(C#N)n1
inactive: [16] 89 % of control | [17] 94 % of control | [18] 94 % of control

O=C1C(Cl)=C(Sc2nnc3c4ccccc4c4ccccc4c3n2)C(=O)c2ccccc21
inactive: [14] 100 % of control | [7] 91 % of control | [8] 99 % of control

From PubChem BioAssay AID330 (DTP/NCI, 2004)
